Structures can show the parent of a compound that is named as a salt.

Consider 16 compounds from patent US10975056B2 (GlaxoSmithKline Intellectual Property Development Limited, priority 2016, dated 2021).

For one experiment, the system named is MV-4-11 AML cells. The experiment in a line: MV-4-11 cell proliferation assay (CellTiter-Glo, 6 days). Format: cell-based. Conditions: Homo sapiens, MV4-11, 144 h; 6 days treatment; binning as pXC50; read-out: MV4-11 Anti-proliferative activity (EC50 category). Here is the method:
MV-4-11 Anti-Proliferative Activity (pEC50 Category)
Cell proliferation assay. Optimal cell seeding density was determined empirically for MV-4-11 AML cells by examining the growth of a wide range of seeding densities in a 384-well format to identify conditions that permitted maximal and continued proliferation for 6 days. MV-4-11 cells were plated in duplicate plates 24 hours before treatment with a 20-point two-fold dilution series of compound or 0.15% DMSO. Plates were incubated for 6 days at 37° C. in 5% CO2. Cells were then lysed with CellTiter-Glo (CTG) (Promega) and chemiluminescent signal was detected with an appropriate microplate reader. In addition, an untreated plate of cells was harvested at the time of compound addition (T0) to quantify the initial cell density. CTG values obtained after 6 days of treatment were expressed as a percent of the T0 value and plotted against compound concentration. Data were fit with a four parameter equation to generate a concentration response curve from which growth IC50 values were calculated.

In a further experiment the target is DNMT1 (Homo sapiens, UniProt P26358). The experiment in a line: DNMT1 biochemical activity, breaklight assay and/or SPA assay. Conditions: for DNMT1 BioChemical (pIC50 category) / IC50: binned activity in either the breaklight or the SPA assay; for IC50: read-out: DNMT1 BioChemical (pIC50 category) (converted).
Experiment [1] concerns erythroid progenitor cells (EPCs). The experiment can be described thus: Fetal hemoglobin (HbF) ELISA in day 7 erythroid progenitor cells.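 Further: for fetal hemoglobin induction normalized to vehicle-treated cells.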 Format: cell-based, human. Conditions: Homo sapiens, Erythroid progenitor cell, HbF ELISA, day 7 EPCs, 5 days; read-out: EPC ELISA (pEC50 category) (converted). The gist of the method:
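CD34+-derived EPCs, 1,000 cells/well, rhEPO 3 U/mL; Compound A 22-pt series, […]; 5 d, 37° C, 5% CO2. Freeze-thaw lysis, anti-HbF capture + HRP anti-HbF, TMB, OD450. Normalized to DMSO wells.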
For orientation: ELISA stands for enzyme-linked immunosorbent assay.

The next experiment has as its target human full length DNMT1 (Homo sapiens (Human), UniProt P26358). The experiment in a line: DNMT1 breaklight assay. Format: biochemical. The conditions noted are these: repeated experimental runs, read-out: average IC50 against DNMT1. Here is the method: DNMT1 breaklight in vitro assays were conducted in a total volume of 50 μl in a standard 384 well format, using black non-binding surface microplates (Corning 3575). Five μl of human full length DNMT1 (produced internally), used at a final concentration of 40 nM, was added to 5 μl of substrate mixture containing final concentrations of 125 nM hemi methylated oligonucleotide (synthesized at ATD Bio; 5′-FAM-[…]5[…]5G5TAGAT-3′ where 5=methyl deoxycitidine) and 2 μM ultrapure SAM (Cisbio #62SAHZLD). Negative control wells used 5 μl of DNMT1 and 5 μl of oligonucleotide but 0 μM SAM. All reagents were made up in 1× assay buffer (20 mM Tris pH 6.8, 25 mM NaCl, 0.5 mM MgCl2, 0.01% Triton X100 and 1 mM DTT). The reaction was incubated at 26° C. for 45 min and then stopped with the addition of 40 μl detection reagent. Detection reagent, made up in 1× Gla assay buffer (20 mM Tris pH 8.0, 80 mM NaCl, 0.75 mM MgCl2, 0.01% Triton X100 and 1 mM DTT) has a final concentration of 100 μM SAH (Sigma #A9384) and 0.0008 units/μl Gla1 restriction endonuclease (Sibenzyme #E494). Following addition of the detection reagent the plate was incubated in the dark at room temperature for 5 hr. Fluorescence intensity was then measured on the PHERAstar FS (BMG Labtech) at Ex 485 nm and Em 520 nm, with a gain of 400 and an integration time of 100 ms.

Another experiment addresses DNMT3B (Homo sapiens (Human), UniProt Q9UBC3). The experiment can be described thus: DNMT3B breaklight assay. Conditions: read-out: DNMT3B Breaklight IC50. Format: biochemical.

DNMT1, sequence (P26358 whole entry, looked up): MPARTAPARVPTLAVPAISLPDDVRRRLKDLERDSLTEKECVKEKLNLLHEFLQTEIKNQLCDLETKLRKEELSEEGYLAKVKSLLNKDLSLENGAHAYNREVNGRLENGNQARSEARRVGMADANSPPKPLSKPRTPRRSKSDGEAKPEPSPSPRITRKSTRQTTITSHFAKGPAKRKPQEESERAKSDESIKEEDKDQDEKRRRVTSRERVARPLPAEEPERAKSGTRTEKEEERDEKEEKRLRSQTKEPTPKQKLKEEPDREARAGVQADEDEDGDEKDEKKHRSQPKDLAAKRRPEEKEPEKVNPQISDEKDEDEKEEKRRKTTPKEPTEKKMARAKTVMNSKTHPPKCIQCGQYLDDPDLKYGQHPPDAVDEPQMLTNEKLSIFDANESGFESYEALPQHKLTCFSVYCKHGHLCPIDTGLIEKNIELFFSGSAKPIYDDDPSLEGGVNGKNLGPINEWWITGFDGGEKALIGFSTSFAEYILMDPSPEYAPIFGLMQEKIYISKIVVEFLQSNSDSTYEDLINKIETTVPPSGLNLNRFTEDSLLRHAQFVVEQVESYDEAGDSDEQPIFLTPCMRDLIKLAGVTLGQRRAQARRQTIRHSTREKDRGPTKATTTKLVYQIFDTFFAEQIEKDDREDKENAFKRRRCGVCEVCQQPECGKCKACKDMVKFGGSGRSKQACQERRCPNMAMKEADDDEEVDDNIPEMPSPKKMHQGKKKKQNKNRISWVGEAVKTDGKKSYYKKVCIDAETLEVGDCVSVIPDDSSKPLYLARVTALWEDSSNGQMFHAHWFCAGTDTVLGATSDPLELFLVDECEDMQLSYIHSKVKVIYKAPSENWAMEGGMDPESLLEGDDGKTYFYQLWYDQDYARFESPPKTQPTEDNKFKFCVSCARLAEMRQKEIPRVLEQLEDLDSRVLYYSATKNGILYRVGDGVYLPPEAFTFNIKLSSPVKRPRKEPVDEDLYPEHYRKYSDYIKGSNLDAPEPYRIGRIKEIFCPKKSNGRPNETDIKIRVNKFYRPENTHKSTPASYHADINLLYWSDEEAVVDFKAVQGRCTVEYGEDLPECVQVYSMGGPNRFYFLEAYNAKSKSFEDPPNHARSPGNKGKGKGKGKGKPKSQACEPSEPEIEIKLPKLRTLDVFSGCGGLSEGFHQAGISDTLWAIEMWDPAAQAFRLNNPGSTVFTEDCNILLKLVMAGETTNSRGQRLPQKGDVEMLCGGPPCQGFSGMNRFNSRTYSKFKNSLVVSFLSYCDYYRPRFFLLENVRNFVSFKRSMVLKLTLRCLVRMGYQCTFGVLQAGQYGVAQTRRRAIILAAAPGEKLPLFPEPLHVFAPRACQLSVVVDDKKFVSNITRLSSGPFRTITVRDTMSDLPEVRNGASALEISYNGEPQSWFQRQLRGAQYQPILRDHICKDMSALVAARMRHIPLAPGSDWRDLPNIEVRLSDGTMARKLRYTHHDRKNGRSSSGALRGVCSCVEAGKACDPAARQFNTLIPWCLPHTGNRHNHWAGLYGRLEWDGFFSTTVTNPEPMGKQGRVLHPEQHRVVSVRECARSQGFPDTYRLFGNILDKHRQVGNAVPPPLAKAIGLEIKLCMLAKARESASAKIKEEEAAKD
human full length DNMT1, sequence (P26358 whole entry): as the sequence (P26358 whole entry, looked up) above

With `N#Cc1c(SC(C(N)=O)c2ccccc2)nc(N2CCCNCC2)c(C#N)c1C1CC1` (stereo not shown) [Example 4, 2-((3,5-dicyano-4-cyclopropyl-6-(1,4-diazepan-1-yl)pyridin-2-yl)thio)-2-phenylacetamide], the results for the EC50 (in the experiment with MV-4-11 AML cells; in experiment [1]) were 1000 to 31600 nM and under 316 nM, respectively. Also, on DNMT1, the “DNMT1 BioChemical (pIC50 category)” value was “D (Category D: ≥6.5)”.

`CN(C)C1CCCN(c2nc(SC(C(N)=O)c3ccccc3)c(C#N)c(C3CC3)c2C#N)C1` (stereo not shown) [Example 18, 2-((3,5-Dicyano-4-cyclopropyl-6-(3-(dimethylamino)piperidin-1-yl)pyridin-2-yl)thio)-2-phenylacetamide]: the EC50 was 1000 to 31600 nM in the experiment with MV-4-11 AML cells and under 316 nM in experiment [1]. The “DNMT1 BioChemical (pIC50 category)” value at DNMT1 was “D (Category D: ≥6.5)”.

Turning to `N#Cc1c(SC(C(N)=O)c2ccccc2)nc(N2CCC(N3CCCC3)CC2)c(C#N)c1C1CC1` (stereo not shown) [Example 42, 2-((3,5-Dicyano-4-cyclopropyl-6-(4-(pyrrolidin-1-yl)piperidin-1-yl)pyridin-2-yl)thio)-2-phenylacetamide trifluoroacetate], the EC50 with MV-4-11 AML cells was 316 to 1000 nM; in experiment [1], under 316 nM. For the same compound, on DNMT1, the “DNMT1 BioChemical (pIC50 category)” value is on record as “D (Category D: ≥6.5)”.

Regarding `CCc1c(C#N)c(SC(C(N)=O)c2ccccc2)nc(N2CCC(C3CCNCC3)CC2)c1C#N` (stereo not shown) [Example 122, 2-((6-([4,4′-Bipiperidin]-1-yl)-3,5-dicyano-4-ethylpyridin-2-yl)thio)-2-phenylacetamide; 2,2,2-trifluoroacetic acid], the EC50 was 316 to 1000 nM in the experiment with MV-4-11 AML cells and under 316 nM in experiment [1]. Also, the “DNMT1 BioChemical (pIC50 category)” value on DNMT1 was “D (Category D: ≥6.5)”. Also, at DNMT1 (breaklight assay and/or SPA assay, repeated experimental runs), the “average pIC50 against DNMT1” value is over 6.5.

Take `CCc1c(C#N)c(SC(C(N)=O)c2ccccc2)nc(N2CCN(CCN)CC2)c1C#N` (stereo not shown) [Example 123, 2-((6-(4-(2-Aminoethyl)piperazin-1-yl)-3,5-dicyano-4-ethylpyridin-2-yl)thio)-2-phenylacetamide]: the EC50 in the experiment on MV-4-11 AML cells was 1000 to 31600 nM; in experiment [1], under 316 nM. On DNMT1, the “DNMT1 BioChemical (pIC50 category)” value is “D (Category D: ≥6.5)”.

As to `N#Cc1c(SC(C(N)=O)c2ccncc2)nc(N2CC[C@H](O)C2)c(C#N)c1C1CC1` (stereo partly drawn) [Example 34, 2-((3,5-dicyano-4-cyclopropyl-6-((S)-3-hydroxypyrrolidin-1-yl)pyridin-2-yl)thio)-2-(pyridin-4-yl)acetamide], the EC50 (in the experiment on MV-4-11 AML cells; in experiment [1]) was 1000 to 31600 nM each time. In addition, the IC50 at DNMT1 was 316 to 1000 nM.

Turning to `N#Cc1c(SC(C(N)=O)c2ccncc2)nc(N2CCCNCC2)c(C#N)c1C1CC1` (stereo not shown) [Example 31, 2-((3,5-dicyano-4-cyclopropyl-6-(1,4-diazepan-1-yl)pyridin-2-yl)thio)-2-(pyridin-4-yl)acetamide], the EC50 was 1000 to 31600 nM in the experiment with MV-4-11 AML cells and over 31600 nM in experiment [1]. The IC50 on DNMT1 was 316 to 1000 nM.

For the compound `CCc1c(C#N)c(SC(C(N)=O)c2ccccc2)nc(N(C)CC(N)=O)c1C#N` (stereo not shown) [Example 145, 2-((6-((2-Amino-2-oxoethyl)(methyl)amino)-3,5-dicyano-4-ethylpyridin-2-yl)thio)-2-phenylacetamide], the EC50 (in the experiment with MV-4-11 AML cells; in experiment [1]) was under 316 nM each time. The “DNMT1 BioChemical (pIC50 category)” value on DNMT1 was “D (Category D: ≥6.5)”.

`CCc1c(C#N)c(SC(C(N)=O)c2ccccc2)nc(N2CCC3(CNC3)C2)c1C#N` (stereo not shown) [Example 44, 2-((3,5-Dicyano-4-ethyl-6-(2,6-diazaspiro[3.4]octan-6-yl)pyridin-2-yl)thio)-2-phenylacetamide]: the EC50 (in the experiment on MV-4-11 AML cells; in experiment [1]) was 1000 to 31600 nM each time. In addition, the “DNMT1 BioChemical (pIC50 category)” value on DNMT1 is “D (Category D: ≥6.5)”.

On to `CCCN1CCN(c2nc(SC(C(N)=O)c3ccccc3)c(C#N)c(CC)c2C#N)CC1` (stereo not shown) [Example 12, 2-{[3,5-dicyano-4-ethyl-6-(4-propylpiperazin-1-yl)pyridin-2-yl]sulfanyl}-2-phenylacetamide], for which the IC50 at human full length DNMT1 was at most 500 nM; on DNMT1, 316 to 1000 nM. Also, the EC50 in experiment [1] was 316 to 1000 nM.

Turning to `N#Cc1c(SC(C(N)=O)c2ccccc2)nc(N2CCCC(N)C2)c(C#N)c1C1CC1` (stereo not shown) [Example 25, 2-((6-(3-aminopiperidin-1-yl)-3,5-dicyano-4-cyclopropylpyridin-2-yl)thio)-2-phenylacetamide], the IC50 on human full length DNMT1 was at most 500 nM. Besides, the “DNMT1 BioChemical (pIC50 category)” value at DNMT1 is “D (Category D: ≥6.5)”. The EC50 in experiment [1] is under 316 nM.

Turning to `N#Cc1c(SC(C(N)=O)c2ccccc2)nc(N2CCCC(O)C2)c(C#N)c1C1CC1` (stereo not shown) [Example 164, 2-(3,5-Dicyano-4-cyclopropyl-6-(3-hydroxypiperidin-1-yl)pyridin-2-ylthio)-2-phenylacetamide], the EC50 was 1000 to 31600 nM in the experiment on MV-4-11 AML cells and 316 to 1000 nM in experiment [1]. The IC50 at DNMT1 was 316 to 1000 nM.

Regarding `CCc1c(C#N)c(SC(C(N)=O)c2ccccc2)nc(N2CCCN(CCO)CC2)c1C#N` (stereo not shown) [Example 318, 2-((3,5-Dicyano-4-ethyl-6-(4-(2-hydroxyethyl)-1,4-diazepan-1-yl)pyridin-2-yl)thio)-2-phenylacetamide], the figures for the EC50 (with MV-4-11 AML cells; in experiment [1]) were 316 to 1000 nM and under 316 nM, respectively. In addition, the “DNMT1 BioChemical (pIC50 category)” value on DNMT1 is given as “D (Category D: ≥6.5)”.

In the case of `CCc1c(C#N)c(N[C@@H](C(N)=O)c2ccccc2)nc(N2CCCN(CCO)CC2)c1C#N` [Example 114, (2R)-2-({3,5-Dicyano-4-ethyl-6-[4-(2-hydroxyethyl)-1,4-diazepan-1-yl]pyridin-2-yl}amino)-2-phenylacetamide], the EC50 (with MV-4-11 AML cells; in experiment [1]) was 1000 to 31600 nM throughout. Moreover, the IC50 at DNMT1 was 316 to 1000 nM.

For `CC1CN(c2nc(SC(C(N)=O)c3ccccc3)c(C#N)c(C3CC3)c2C#N)CC(C)O1` (stereo not shown) [Example 21, 2-((3,5-Dicyano-4-cyclopropyl-6-(2,6-dimethylmorpholino)pyridin-2-yl)thio)-2-phenylacetamide], the IC50 was over 750 nM at human full length DNMT1 and 316 to 1000 nM at DNMT1. For the same compound, the EC50 in experiment [1] is 1000 to 31600 nM.

In the case of `CCc1c(C#N)c(S[C@@H](C(N)=O)c2ccccc2)nc(N(C)C)c1C#N` [Example 64, (R)-2-((3,5-dicyano-6-(dimethylamino)-4-ethylpyridin-2-yl)thio)-2-phenylacetamide], the EC50 in the experiment with MV-4-11 AML cells is 316 to 1000 nM; in experiment [1], under 316 nM. Moreover, the IC50 on DNMT3B was over 500000 nM.
